Reference: patent publication US5607926A, “Cephalosporin antibiotics” (Microcide Pharmaceuticals, Inc., priority 1995, dated 1997)
≈ marks a conversion by molar mass, not a printed value. Structures can show the parent of a compound that is named as a salt. Where two headings read alike, the source gives them in different places.

Key:
Type in all cases: cell-based
P. aeruginosa ATCC 27853 = test: In vitro antibacterial evaluation, MIC by agar dilution, P. aeruginosa ATCC 27853; conditions: Pseudomonas aeruginosa, ATCC27853, read-out: MIC
Method in brief: (§1)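 Growth inhibition on Mueller-Hinton agar plates defined the MIC, the lowest compound level stopping visible growth after 16-20 hours at 35°-36° C. Compound was incorporated at two-fold steps from 128 μg/mL to ≤0.25 μg/mL, each tested twice, with about 10^4 cfu spotted per isolate.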

S. haemolyticus (Meth^R) = test: In vitro antibacterial evaluation, MIC by agar dilution, S. haemolyticus; conditions: Staphylococcus haemolyticus, read-out: MIC
Method in brief: as §1

E. coli ATCC 25922 = test: In vitro antibacterial evaluation, MIC by agar dilution, E. coli ATCC 25922; conditions: Escherichia coli, ATCC25922, read-out: MIC
Method in brief: as §1

[1] = system: S. epidermidis ATCC 31432; test: In vitro antibacterial evaluation, MIC by agar dilution, S. epidermidis ATCC 31432; conditions: Staphylococcus epidermidis, ATCC31432
Method in brief: as §1

[2] = system: S. aureus 76 (Meth^R)(lac^+); test: In vitro antibacterial evaluation, MIC by agar dilution, S. aureus 76; conditions: Staphylococcus aureus, read-out: MIC
Method in brief: as §1

[3] = system: S. aureus Col8A (Meth^S)(lac^-); test: In vitro antibacterial evaluation, MIC by agar dilution, S. aureus Col8A; conditions: Staphylococcus aureus
Method in brief: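 Agar dilution per NCCLS (1991): two-fold dilutions from 128 μg/mL down to ≤0.25 μg/mL in Mueller-Hinton agar, each level in duplicate. Spots of about 10^4 cfu of log-phase culture; 16-20 h at 35°-36° C. MIC in μg/ml is the lowest concentration inhibiting growth.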

S. aureus ATCC 25923 = test: In vitro antibacterial evaluation, MIC by agar dilution, S. aureus ATCC 25923; conditions: Staphylococcus aureus, ATCC25923
Description: The compounds of the invention were evaluated against several β-lactamresistant bacteria strains by determining the minimum inhibitory concentration (MIC, μg/ml) of each compound with respect to each strain. The MIC, the lowest concentration of antibiotic which inhibits growth of the test organism, was determined by the agar dilution method.
To determine the MIC for bacterial isolates, the test compound was incorporated in a series of two-fold dilutions into liquified Mueller-Hinton agar. Upon solidification, a number of different bacterial strains were spot inoculated with a replicating device onto the agar surface. […] The procedures used in these studies have been standardized by the National Committee for Clinical Laboratory Standards (NCCLS), as per the NCCLS publication entitled METHODS FOR DILUTION ANTIMICROBIAL SUSCEPTIBILITY TESTS (1991), which is incorporated herein by reference.
Aliquots of antimicrobial agents were prepared in phosphate buffered saline (PBS) at pH 7.2. Tween 20 or DMSO was used as a solubilizing vehicle as needed. Standard methods of vortexing, sonicating and gentle heat were used to facilitate solubilizing the test agent. Typically, the concentration of the stock solution was 10× that of the highest drug concentration tested. A 1.28 mg/mL stock solution was used with a subsequent highest working concentration of 128 μg/mL. Serial two-fold dilutions were done through ≤0.25 μg/mL. Each drug level was tested in duplicate. Two-fold drug dilutions were done in sterile 50 mL tubes with a final drug volume of 5 mL. Upon the addition of 45 mL of molten agar, a 10-fold dilution resulted. Two, 25 mL. plates were then poured into 15×150 mm square Petri plates with grids and allowed to harden.
A control plate with a reference drug, either cefotaxime, vancomycin or imipenem, was used as the positive growth control. Stock concentrations of reference antibiotics were prepared and frozen at -80° C. Upon preparation, the control plates were sealed and stored in the refrigerator for up to 1 week prior to use; however, imipenem control plates had to be prepared just prior to use. All test plates were used within 24 hours of preparation.
Satisfactory results were obtained where the inoculum contained about 10^4 colony forming units (cfu) ±0.5 logs. Starting with pure cultures of the test isolates on agar plates, a few isolated colonies were transferred to a tube of nutrient broth and allowed to grow 4-6 hours at 35°-36° C. to reach log-phase growth. Dropwise addition of the broth culture to PBS was done to match a 0.5 McFarland turbidity standard equal to 10^8 cfu/mL. This was further diluted ten-fold in PBS to reach a working inoculum concentration of 10^7 cfu/mL. When 1 μL of the working inoculum was applied to the agar surface a concentration of about 10^4 cfu per spot was obtained.
Disposable sterile 1 μL loops were used to inoculate test plates, with each isolate in a designated grid on the agar plate. An alternate method of inoculation involved the use of a replica plater, a device with 48 steel pins allowing the simultaneous inoculation of multiple isolates. After the spots had dried, the plates were incubated at 35°-36° C. for 16-20 hours. Endpoints were assessed as the minimum inhibitory concentration (MIC) of antimicrobial agent.

E. faecalis ATCC 29212 = test: In vitro antibacterial evaluation, MIC by agar dilution, E. faecalis ATCC 29212; conditions: Enterococcus faecalis, ATCC29212; E. faecalis ATCC 29212; read-out: MIC
Method in brief: as §1

E. faecium ATCC 35667 = test: In vitro antibacterial evaluation, MIC by agar dilution, E. faecium ATCC 35667; conditions: Enterococcus faecium, ATCC35667, read-out: MIC
Method in brief: as §1

[4] = S. epidermidis ATCC 31432, read-out: MIC
[5] = S. aureus ATCC 25923, read-out: MIC

Structure (SMILES) | MIC (P. aeruginosa ATCC 27853) | MIC (S. haemolyticus (Meth^R)) | MIC (E. coli ATCC 25922) | MIC [1, 4] | MIC [2] | MIC [3] | MIC (S. aureus ATCC 25923; [5]) | MIC (E. faecalis ATCC 29212) | MIC (E. faecium ATCC 35667) | MIC [1] | MIC (S. aureus ATCC 25923)
Nc1nc(/C(=N/O)C(=O)N[C@@H]2C(=O)N3C(C(=O)O)=C(Sc4ccccc4-c4ccccc4)CS[C@H]23)cs1 [Cmpd 42, (7R)-7-[(Z)-2-(aminothiazol-4-yl)-2-(hydroxyimino)acetamido]-3-(2-biphenylthio)-3-cephem-4-carboxylic acid] | > 32 µg/mL | 16 µg/mL (≈ 28.9 µM) | 32 µg/mL (≈ 57.8 µM) | < 0.25 µg/mL | 8 µg/mL (≈ 14.4 µM) | 0.5 µg/mL (≈ 0.903 µM) | < 0.25 µg/mL | 2 µg/mL (≈ 3.61 µM) | 2 µg/mL (≈ 3.61 µM) |  | 
O=C(Cc1ccccc1)N[C@@H]1C(=O)N2C(C(=O)O)=C(Sc3cnnn3-c3ccccc3)CS[C@H]12 [Cmpd 91, (7R)-7-[(Phenylacetyl)amino]-3-(1-N-phenyl-1,2,3-triazol-5-ylthio)-3-cephem-4-carboxylic acid] | > 32 µg/mL | > 32 µg/mL | > 32 µg/mL |  | 16 µg/mL (≈ 32.4 µM) | < 0.25 µg/mL |  | 1 µg/mL (≈ 2.03 µM) | 2 µg/mL (≈ 4.05 µM) | < 0.25 µg/mL | < 0.25 µg/mL
O=C(Cc1ccccc1)N[C@@H]1C(=O)N2C(C(=O)O)=C(Sc3ccccc3-c3cccs3)CS[C@H]12 [Cmpd 37, (7R)-7-[(Phenylacetyl)amino]-3-(2-(2-thienyl)phenylthio)-3-cephem-4-carboxylic acid] | > 32 µg/mL | 16 µg/mL (≈ 31.5 µM) | > 32 µg/mL |  | 8 µg/mL (≈ 15.7 µM) | < 0.25 µg/mL |  | 2 µg/mL (≈ 3.93 µM) | 2 µg/mL (≈ 3.93 µM) | < 0.25 µg/mL | < 0.25 µg/mL
O=C(Cc1ccccc1)N[C@@H]1C(=O)N2C(C(=O)O)=C(Sc3ccc4ccccc4c3Br)CS[C@H]12 [Cmpd 57, (7R)-7-[(Phenylacetyl)amino]-3-(1-bromo-naphthalen-2-ylthio)-3-cephem-4-carboxylic acid] | 32 µg/mL (≈ 57.6 µM) | 4 µg/mL (≈ 7.2 µM) | 32 µg/mL (≈ 57.6 µM) |  | 2 µg/mL (≈ 3.6 µM) | < 0.25 µg/mL |  | 2 µg/mL (≈ 3.6 µM) | 1 µg/mL (≈ 1.8 µM) | < 0.25 µg/mL | < 0.25 µg/mL
N#CCC(=O)N[C@@H]1C(=O)N2C(C(=O)O)=C(Sc3ccc(CSC(=N)N)cc3I)CS[C@H]12 [Cmpd 66, (7R)-7-[(Cyanoacetyl)amino]-3-(4-isothiouroniummethyl-2-iodophenylthio)-3-cephem-4-carboxylate, inner salt] | > 32 µg/mL | 8 µg/mL | > 32 µg/mL |  | 8 µg/mL | < 0.25 µg/mL |  | 4 µg/mL | 1 µg/mL | < 0.25 µg/mL | < 0.25 µg/mL
O=C(Cc1ccccc1)N[C@@H]1C(=O)N2C(C(=O)O)=C(Sc3cccc4c3CCCC4)CS[C@H]12 [Cmpd 56, (7R)-7-[(Phenylacetyl)amino]-3-(5,6,7,8-tetrahydronaphthalen-1-ylthio)-3-cephem-4-carboxylic acid] | > 32 µg/mL | 16 µg/mL (≈ 33.3 µM) | > 32 µg/mL |  | 4 µg/mL (≈ 8.32 µM) | < 0.25 µg/mL |  | 2 µg/mL (≈ 4.16 µM) | 4 µg/mL (≈ 8.32 µM) | < 0.25 µg/mL | < 0.25 µg/mL
O=C(Cc1ccc(Cl)cc1)N[C@@H]1C(=O)N2C(C(=O)O)=C(Sc3cccnc3-c3ccccc3)CS[C@H]12 [Cmpd 84, (7R)-7-[(4-Chlorophenylacetyl)amino]-3-(2-phenylpyridin-3-ylthio)-3-cephem-4-carboxylic acid] | > 32 µg/mL | 8 µg/mL (≈ 14.9 µM) | > 32 µg/mL |  | 8 µg/mL (≈ 14.9 µM) | < 0.25 µg/mL |  | 1 µg/mL (≈ 1.86 µM) | 1 µg/mL (≈ 1.86 µM) | < 0.25 µg/mL | < 0.25 µg/mL
O=Cc1ccccc1SC1=C(C(=O)O)N2C(=O)[C@@H](NC(=O)Cc3ccccc3)[C@H]2SC1 [Cmpd 50, (7R)-7-[(Phenylacetyl)amino]-3-(2-formylphenylthio)-3-cephem-4-carboxylic acid] | > 32 µg/mL | 8 µg/mL (≈ 17.6 µM) | 8 µg/mL (≈ 17.6 µM) |  | 8 µg/mL (≈ 17.6 µM) | < 0.25 µg/mL |  | 4 µg/mL (≈ 8.8 µM) | 4 µg/mL (≈ 8.8 µM) | < 0.25 µg/mL | < 0.25 µg/mL
Cn1cc[n+](Cc2ccoc2-c2ccccc2SC2=C(C(=O)[O-])N3C(=O)[C@@H](NC(=O)Cc4ccccc4)[C@H]3SC2)c1 [Cmpd 48, (7R)-7-[(Phenylacetyl)amino]-3-(2-(3-(N-methylimidazoliummethyl)furan-2-yl)phenylthio)-3-cephem-4-carboxylic acid] | > 32 µg/mL | 16 µg/mL (≈ 27.3 µM) | > 32 µg/mL | < 0.25 µg/mL | 16 µg/mL (≈ 27.3 µM) | 0.5 µg/mL (≈ 0.852 µM) | < 0.25 µg/mL | 4 µg/mL (≈ 6.82 µM) | 4 µg/mL (≈ 6.82 µM) |  | 
CN(C)C(SCc1ccc(SC2=C(C(=O)[O-])N3C(=O)[C@@H](NC(=O)Cc4ccccc4)[C@H]3SC2)c(I)c1)=[N+](C)C [Cmpd 62, (7R)-7-[(Phenylacetyl)amino]-3-(4-tetra-methylisothiouroniummethyl-2-iodophenylthio)-3-cephem-4-carboxylate, inner salt] | > 32 µg/mL | 32 µg/mL | > 32 µg/mL |  | 16 µg/mL | < 0.25 µg/mL |  | 2 µg/mL | 4 µg/mL | < 0.25 µg/mL | < 0.25 µg/mL
C[n+]1cccc(SC2=C(C(=O)[O-])N3C(=O)[C@@H](NC(=O)Cc4ccccc4)[C@H]3SC2)c1-c1ccccc1 [Cmpd 82, (7R)-7-[(Phenylacetyl)amino]-3-(2-phenyl-N-methylpyridin-3-iumthio)-3-cephem-4-carboxylate] | > 32 µg/mL | 32 µg/mL (≈ 61.8 µM) | > 32 µg/mL |  | 16 µg/mL (≈ 30.9 µM) | < 0.25 µg/mL |  | 1 µg/mL (≈ 1.93 µM) | 4 µg/mL (≈ 7.73 µM) | < 0.25 µg/mL | < 0.25 µg/mL
O=C(CSc1ccccc1)N[C@@H]1C(=O)N2C(C(=O)O)=C(Sc3cc(Cl)ccc3Cl)CS[C@H]12 [Cmpd 35, (7R)-7-[(Phenylthioacetyl)amino]-3-(2,5-dichlorophenylthio)-3-cephem-4-carboxylic acid] | > 32 µg/mL | 8 µg/mL (≈ 15.2 µM) | > 32 µg/mL |  | 2 µg/mL (≈ 3.79 µM) | < 0.25 µg/mL |  | 1 µg/mL (≈ 1.9 µM) | 1 µg/mL (≈ 1.9 µM) | < 0.25 µg/mL | < 0.25 µg/mL
N=C(N)SCc1ccc(SC2=C(C(=O)O)N3C(=O)[C@@H](NC(=O)Cc4ccccc4)[C@H]3SC2)cc1 [Cmpd 63, (7R)-7-[(Phenylacetyl)amino]-3-(4-isothiouroniummethylphenylthio)-3-cephem-4-carboxylate, inner salt] | > 32 µg/mL | 32 µg/mL | 8 µg/mL |  | 16 µg/mL | < 0.25 µg/mL |  | 1 µg/mL | 1 µg/mL | < 0.25 µg/mL | < 0.25 µg/mL
O=C(Cc1ccccc1)N[C@@H]1C(=O)N2C(C(=O)O)=C(Sc3ccc(Br)cc3Br)CS[C@H]12 [Cmpd 39, (7R)-7-[(Phenylacetyl)amino]-3-(2,4-dibromophenylthio)-3-cephem-4-carboxylic acid] | > 32 µg/mL | 8 µg/mL (≈ 13.7 µM) | > 32 µg/mL |  | 4 µg/mL (≈ 6.85 µM) | < 0.25 µg/mL |  | 2 µg/mL (≈ 3.42 µM) | 2 µg/mL (≈ 3.42 µM) | < 0.25 µg/mL | < 0.25 µg/mL
